{"source": "patent US20200260697A1", "about": "“METHODS OF MOUSE CLINICAL TRIAL” (CROWN BIOSCIENCE, INC. (TAICANG), priority 2016, published 2020)", "assay_type_in_all_cases": "in vivo, mouse", "key": {"[1]": {"system": "gastric cancer PDXs", "test": "LMM (Equation 8) of the cisplatin dataset with ERCC1 expression as covariate", "details": "LMM Equation 8, gastric cancer PDXs", "source_text": "The LMM can readily incorporate PDX-level genomic covariates, e.g. gene expression and mutation, for biomarker analysis. We used the same dataset to examine if ERCC1 expression is related to cisplatin response in gastric cancer by fitting the following LMM:\nlnVtij=β0+β1×Dayt+β2×Dayt×ERCC1j+β3×Dayt×Treatmentij+β4×Dayt×ERCC1j×Treatmentij+u0j+u1j×Dayt+u(0i|j)+u(1i|j)×Dayt+ϵtij (8)\nIn this model, β2 evaluates ERCC1 expression as a prognostic biomarker since it is for both vehicle and cisplatin groups. […] The coefficient β4 examines ERCC1 expression as a predictive biomarker for cisplatin. The fitted value of β4 is 0.0136, close to that of β2. Therefore, high ERCC1 expression acts adversely to cisplatin treatment (FIG. 9E). The parameter β3 quantifies cisplatin treatment and is estimated to be −0.0879. Results from our LMM may have clinical implications."}, "[2]": {"system": "42 PDXs including 13 esophageal cancers (ES), 21 gastric cancers (GA) and 8 lung cancers(LU)", "test": "Survival analysis (PFS, OS) of the cisplatin MCT dataset, additive frailty model and proportional hazard Cox model", "details": "cisplatin versus vehicle", "source_text": "Survival analysis are the most important endpoints of human clinical trials and can also be potentially adapted to MCT by first defining “clinical endpoint” of PFS (progress-free survival) and OS (overall survival) in preclinical setting. By the RECIST standard (Therasse P et al., J Natl Cancer Inst (2000) 92(3):205-16), we define PFS as the time until the starting tumor volume increases by 73%, and define OS as the time until the starting tumor volume triples, at which the tumor volume is usually between 300-600 mm^3, depending on initial tumor volumes. As we have shown in examples above, tumors already start exponential growth before it reaches 600 mm^3. The definitions are more of a custom and can certainly be adjusted otherwise. For example, Gao et al defined PFS as the time until tumor volume doubles (Gao H et al., Nat Med (2015) 21(11):1318-25). We can also define OS as the time until the starting tumor volume quadruples and so on.\nIn human oncology trails, survival time of patients is usually assumed to be independent of each other. […] Mice have correlated survival time both within a PDX and between treatments (FIGS. 10A-B). There is heterogeneity on hazard and drug response for PDXs. We used an additive frailty model to fit the survival data in MCTs (Rondeau V et al., J Statistical Software (2012) 47(4):1-28; Hanagal D D, Statistical Methods in Medical Research (2015) 24(6):936-36). In this model, the hazard function for the j-th mouse of the i-th PDX is\nhij(t)=h0(t)exp(ui+(w+vi)Tij+β^TXi)\nwhere h0(t) is the baseline hazard function. Parameter ui is the random effect (the first frailty term) associated with the i-th PDX that captures its characteristic growth, thus survival behavior, without drug treatment. Parameter vi is the random effect (the second frailty term) associated the i-th PDX that depicts its drug response deviating from the mean drug effect w of all PDXs. Tij is the treatment variable and it equals 0 for the vehicle treatment and 1 for the drug treatment; Xi is a vector for the PDX's covariates, e.g., cancer type and gene expression; β^T is the parameter vector quantifying the fixed effects of the covariates. The two random effects ui and vi assume a bivariate normal distribution with zero means, variance σ^2 and τ^2, and covariance ρστ. If the two random effects ui and vi are removed, the model reduces to the proportional hazard Cox model.\nWe used the cisplatin dataset in the previous example to illustrate modeling by the additive frailty model, using the R package frailtypack (Rondeau V et al., J Statistical Software (2012) 47(4):1-28). For simplicity, we used treatment as the sole covariate. By Equation 10, we observed that both frailty terms are significant larger than 0 (Wald test p-value<0.05) for PFS and OS analyses. […]"}, "[3]": {"system": "42 PDXs including 13 esophageal cancers (ES), 21 gastric cancers (GA) and 8 lung cancers(LU)", "test": "MCT evaluating cisplatin response on 42 PDXs, tumor volume analysed by linear mixed model (Equation 7) and AUC ratio", "method": "In a MCT, tumor volume is measured at multiple time points for each mouse, and these tumor volumes are often correlated, as in a typical longitudinal study. As shown above, almost all growth curves under vehicle treatment can be modeled by the linear Equation 2, and under drug treatment, about 80% of the growth curves are linear or close to linear. If we introduce a quadratic term on the day (x^2), more than 90% of the growth curves can be fitted with R^2>0.7, and 97% with R^2>0.4. With such strong linearity, the linear mixed models (LMM) is a proper and powerful tool to analyze the clustered longitudinal data from MCTs (West B T et al., “Linear Mixed Models: A Practical Guide Using Statistical Software, Second Edition”, Crc Press (2014)). Specifically, a 3-level model is appropriate, in which PDX and mouse are random factors, and covariates at the PDX-level and mouse-level can be included (FIG. 9A). We used an MCT to illustrate the application of LMMs for drug response evaluation and biomarker discovery. The MCT evaluated cisplatin response (4 mg/kg, daily dosing for 3 weeks) on 42 PDXs including 13 esophageal cancers (ES), 21 gastric cancers (GA) and 8 lung cancers(LU), each PDX had 5-9 mice (FIGS. 9B-C). A general model was specified for tumor volume, in log scale, at day t for mouse i within PDX j as follows: [formula] The model used vehicle in ES as the reference. There were […], β0 for the intercept, β1 for the time slope, β2 and β3 quantify the growth rate difference of GA and LU with respect to ES, β4 measures cisplatin effect, β5 and β6 check if GA and LU respond differently to cisplatin. The model also had 5 random effects, including the residual ϵtij. In a MCT, we can view the cohort of PDXs as random samples from a PDX or patient population, therefore, they have different growth rates, which is modeled by the random effect u1j associated with the time slope. Similarly, we model the growth difference for mice within a PDX by the random effect u1i|j. Mice and PDX may also have different starting tumor volumes, which are modeled by the two random effects on intercept: u0j and u0i|j. Therefore, our LMM captures both PDX-level and mouse-level growth heterogeneity under vehicle and drug treatments. […] From the model, we can get fitted cancer specific growth curves, as well as PDX and mouse specific growth curves. On average, cisplatin reduces tumor growth rate by about 38%."}}}
{"smiles": "N.N.[Cl][Pt][Cl]", "note": "[cisplatin]", "values": [{"measurement": "β3 (Day × Treatment), quantifies cisplatin treatment", "setting": "[1]; ERCC1 expression as covariate", "value": "−0.0879"}, {"measurement": "β4 (Day × ERCC1 × Treatment), ERCC1 expression as predictive biomarker for cisplatin", "setting": "[1]; positive value: high ERCC1 expression acts adversely to cisplatin treatment", "value": 0.0136}, {"measurement": "hazard ratio (HR) for OS", "setting": "[2]; additive frailty model, OS = time until starting tumor volume triples", "value": "0.21 (95% CI: 0.15-0.31)"}, {"measurement": "hazard ratio (HR) for PFS", "setting": "[2]; additive frailty model, PFS = time until starting tumor volume increases by 73%", "value": "0.40 (95% CI: 0.31-0.50)"}, {"measurement": "OS HR", "setting": "[2]; proportional hazard Cox model", "value": "0.36 (95% CI: 0.28-0.46)"}, {"measurement": "PFS HR", "setting": "[2]; proportional hazard Cox model", "value": "0.48 (95% CI: 0.40-0.58)"}, {"measurement": "response across cancer types", "setting": "[3]; ES, GA and LU PDXs, p-values for β5 and β6 >0.05", "value": "comparable responses on the 3 cancer types"}, {"measurement": "β4 (Day × Treatment) estimate, cisplatin effect on growth rate of ln tumor volume", "setting": "[3]; LMM Equation 7, vehicle in ES as reference, REML estimate, second figure not defined, p-value 1.2E−19", "value": "−0.0282(0.0031)"}, {"measurement": "β5 (Day × CancerTypeGA × Treatment) estimate", "setting": "[3]; LMM Equation 7, checks if GA responds differently to cisplatin than ES, REML estimate, second figure not defined, p-value 0.35", "value": "0.0037(0.0039)"}, {"measurement": "β6 (Day × CancerTypeLU × Treatment) estimate", "setting": "[3]; LMM Equation 7, checks if LU responds differently to cisplatin than ES, REML estimate, second figure not defined, p-value 0.84", "value": "−0.0011(0.0052)"}, {"measurement": "reduction of tumor growth rate, on average (LMM)", "setting": "[3]; cisplatin 4 mg/kg, daily dosing for 3 weeks, 42 PDXs, 5-9 mice each, LMM Equation 7", "value": "about 38%"}, {"measurement": "reduction of tumor growth rate by the AUC ratio method", "setting": "[3]; cisplatin 4 mg/kg, daily dosing for 3 weeks, 42 PDXs, AUC ratio method", "value": 36, "unit": "%"}]}
